Values of other authors, collected in patent US9585967B2, “Nicotine-containing product” (priority 2008, dated 2017).

Key:
[1] = extensive first-pass metabolism
[2] = in vivo

Q: With `CN1CCC[C@H]1c1cccnc1` [Nicotine, (S)-3-(1-Methyl-2-pyrrolidinyl)pyridine] as the compound, how does the Oral bioavailability [1] read?
A: about 30%

Q: What about the “half life in the body” value [2] of the same compound?
A: around two
